Consider 15 compounds from patent US9744164B2, “Neuroprotective polyphenol analogs” (Salk Institute for Biological Studies, priority 2011, dated 2017).

One assay relates to HT22 cells. Briefly: in vitro ischemia assay (HT22 cell IAA assay). In kind it is cell-based, mouse. The note with it: for improvement of neuroprotective activity/potency over Fisetin: relative to Fisetin, in vitro ischemia; for EC50 in vitro ischemia: HT22 cells, 20 μM IAA 2 hr, viability by MTT after 24 hr, 'no' = no protection. The procedure:
For these studies, cultured HT22 mouse hippocampal cells were used as an in vitro stroke assay. HT22 cells were treated with iodoacetic acid (IAA), an irreversible inhibitor of glyceraldehyde 3-phosphate dehydrogenase (G3PDH) for 2 hr alone or in the presence of varying concentrations of Fisetin. G3PDH is an enzyme of the glycolysis pathway, which catalyzes the synthesis of 1,3-bisphosphoglycerate, a “high energy” intermediate used for the synthesis of ATP. Cell survival was measured using a standard colorimetric MTT (3-(4,5-dimethylthiazol-2-yl)-2,5-diphenyltetrazolium bromide) assay for cell survival MTT is a pale yellow substrate that is cleaved by living cells to yield a dark blue formazan product.
Cytotoxicity assay. Cell viability was determined by a modified version of 3-(4,5-dimethylthiazol-2-yl)-2,5-diphenyl tetrazolium bromide (MTT) assay based on the standard procedure (Maher, et al., Brain Research. (2007), supra). Cells were seeded onto 96-well microtiter plates at a density of 5×10^3 cells per well. For the in vitro ischemia assay, the next day, the medium was replaced with DMEM supplemented with 7.5% DFCS and the cells were treated with 20 μM iodoacetic acid (IAA) alone or in the presence of the different derivatives. After 2 hr the medium in each well was aspirated and replaced with fresh medium without IAA but containing the derivatives. 20 hr later, the medium in each well was aspirated and replaced with fresh medium containing 2.5 μg/ml MTT. After 4 hr of incubation at 37° C., the cells were solubilized with 100 μl of a solution containing 50% dimethylformamide and 20% SDS (pH 4.7). The absorbance at 570 nm was measured on the following day with a microplate reader (Molecular Devices). Results were confirmed by visual inspection of the wells. Controls included compound alone to test for toxicity and compound with no cells to test for interference with the assay chemistry.
For a primary screen, an in vitro ischemia model in combination with the HT22 nerve cell line (Maher, et al., Brain Research. (2007) 1173, 117-125) was chosen. […] To induce ischemia in the HT22 cells we used iodoacetic acid (IAA), a well-known, irreversible inhibitor of the glycolytic enzyme glyceraldehyde 3-phosphate dehydrogenase (G3PDH) (Winkler, et al., Exp. Eye Res. (2003) 76, 715-723). IAA has been used in a number of other studies to induce ischemia in nerve cells (Reshef, et al., Neurosci. Lett. (1997) 238, 37-40; Sperling, et al., Neursci. Lett. (2003) 351, 137-140; Rego, et al., Neurochem. Res. (1999) 24, 351-358; Sigalov, et al,. J. Mol. Neurosci. (2000) 15, 147-154; and Reiner, et al., Neurosci. Lett. (1990) 119, 175-178), including several recent screens for neuroprotective molecules (Biraboneye, et al., J. Med. Chem. (2009) 52 (14), 4358-4369; Biraboneye, et al., Chem. Med. Chem. (2010) 5 (1), 79-85). The changes following IAA treatment of neural cells are very similar to those seen in animal models of ischemic stroke (Lipton, et al., Physiol. Rev. (1999) 79, 1431-1568) and include alterations in membrane potential (Reiner, et al., Neurosci. Lett. (1990) 119, 175-178), breakdown of phospholipids (Taylor, et al., J. Pharmacol. Exp. Ther. (1996) 276, 1224-1231), loss of ATP (Winkler, et al., Exp. Eye Res. (2003) 76, 715-723; Sperling, et al., Neursci. Lett. (2003) 351, 137-140) and an increase in reactive oxygen species (ROS) (Taylor, et al., J. Pharmacol. Exp. Ther. (1996), supra; and Sperling, et al., Neursci. Lett. (2003) 351, 137-140).
The roles of the four different hydroxyl groups in the activity of Fisetin were studied. […] Cell viability was determined after 24 hr by the MTT assay. The ability to maintain GSH (GSH) was determined by treating HT22 cells with different doses of each derivative (1-10 μM) in the presence of 5 mM glutamate. After 24 hr cell extracts were prepared and analyzed for total GSH. Fisetin (10 μM) was used as a positive control. […]

In a further assay the test system is N9 microglial cells. Briefly: anti-inflammatory assay, LPS-induced microglial activation (NO release). The assay is classed as cell-based, mouse. The conditions noted are these: bacterial lipopolysaccharide, derivative 1-10 μM, 24 hr. The method, then: Anti-inflammatory assay. Mouse N9 microglial cells plated in DME with 7.5% DFCS were treated with 10 μg/ml bacterial lipopolysaccharide (Sigma) alone or in the presence of the Fisetin derivatives (1-10 μM) or Fisetin (10 μM) as a positive control. After 24 hr the medium was removed, spun briefly to remove floating cells and 100 μl assayed for NO using 100 μl of the Griess Reagent (Sigma) in a 96 well plate. After incubation for 10 min at room temperature the absorbance at 550 nm was read on a microplate reader.
Three secondary screens allowed assessment of three key activities of Fisetin that are highly relevant to stroke, as well as other neurological disorders: maintenance of glutathione (GSH), the major endogenous cellular antioxidant, inhibition of LPS-induced microglial activation, an indicator of anti-inflammatory activity and PC12 cell differentiation, a measure of neurotrophic activity. All of these activities are relevant to the nerve cell loss seen in stroke (Gelderblom, et al., Stroke. 2009, 40 (5), 1849-1857; Pandya, et al., Cent. Nerv. Syst. Agents. Med. Chem. (2011) Apr. 27; Lewerenz, et al., J. Neurochem. (2010) 113 (2), 502-504). […] To assess GSH maintenance, total intracellular GSH levels after a 24 hr treatment with the compound both in the absence and presence of glutamate, an inducer of GSH loss and oxidative stress (Tan, et al., Curr. Top. Med. Chem. (2001) 1, 497-506; Maher, et al., Free Radical Research. (2006) 40 (10), 1105-1111) was measured Inhibition of LPS-induced microglial activation was determined by treating N9 mouse microglial cells with LPS alone and in the presence of the compounds and assaying NO release into the medium 24 hr later (Zheng, et al., Int. Immunopharmacol. (2008) 8, (3), 484-494). PC12 cell differentiation was determined by treating PC12 cells with the compounds and looking at neurite outgrowth after 24 hr. In all cases, Fisetin was used as a positive control (Sagara, et al., J. Neurochem. (2004) 90, 1144-1155).
The roles of the four different hydroxyl groups in the activity of Fisetin were studied. […] Cell viability was determined after 24 hr by the MTT assay. The ability to maintain GSH (GSH) was determined by treating HT22 cells with different doses of each derivative (1-10 μM) in the presence of 5 mM glutamate. After 24 hr cell extracts were prepared and analyzed for total GSH. Fisetin (10 μM) was used as a positive control. The ability to induce PC12 cell differentiation (PC12 diff'n) was determined by treating PC12 cells in N2 medium with different doses of each derivative (1-10 μM) for 24 hr. Differentiation was assessed by visual inspection with Fisetin (10 μM) as a positive control. Anti-inflammatory activity (microglia) was assessed in N9 microglial cells treated with bacterial lipopolysaccharide alone or in the presence different doses of each derivative (1-10 μM) for 24 hr. Fisetin was used as a positive control. TEAC values, a measure of direct antioxidant activity, were determined using the ABTS+ decolorization assay.

The structures appear in SMILES notation.

For the compound `Cc1ccc2oc(-c3ccc(O)c(O)c3)c(O)c(=O)c2c1` [PM-010, 2-(3,4-dihydroxyphenyl)-3-hydroxy-6-methyl-4H-chromen-4-one], the “improvement of neuroprotective activity/potency over Fisetin” value in the assay with HT22 cells is reported as 10-100 fold.
As to `CCOc1ccc(-c2cc(OC)c3ccccc3n2)cc1OCC` [CMS-004, 4-methoxy-2-(3,4-diethoxyphenyl)quinoline], the “EC50 in vitro ischemia” value with HT22 cells was “no”. Also, in the assay on N9 microglial cells, the “microglia (anti-inflammatory activity)” value stood at 76%.
Regarding `O=c1cc(-c2ccc(O)c(O)c2)oc2ccc3ccccc3c12` [PM-003], the “improvement of neuroprotective activity/potency over Fisetin” value with HT22 cells is given as roughly 40 fold.
Same read-out and setting: as for `O=c1cc(-c2ccc(O)c(O)c2)oc2ccccc12` [PM-001], the figure is 6 fold.
`COc1cc(-c2ccc(O)cc2)nc2ccccc12` [CMS-022, 4-methoxy-2-(4-hydroxyphenyl)quinoline]: the “EC50 in vitro ischemia” value with HT22 cells was “no”. Besides, the “microglia (anti-inflammatory activity)” value with N9 microglial cells was 4%.
As to `O=c1cc(-c2ccc(O)c(O)c2)oc2c1ccc1ccccc12` [CMS-02P, reference compound], the “improvement of neuroprotective activity/potency over Fisetin” value in the assay with HT22 cells is roughly 40 fold. For the same compound, the “microglia (anti-inflammatory activity)” value in the assay on N9 microglial cells amounted to 55%.
For the compound `CCOc1ccc(/C=C/C(=O)c2ccc3ccccc3c2O)cc1OCC` [CMS-032, (E)-3-(3,4-diethoxyphenyl)-1-(1-hydroxynaphthalen-2-yl)prop-2-en-1-one], in the assay on HT22 cells, the “EC50 in vitro ischemia” value is reported as “no”. In the assay with N9 microglial cells, the “microglia (anti-inflammatory activity)” value was 5%.
Regarding `Cc1cc2oc(-c3ccc(O)c(O)c3)cc(=O)c2cc1C` [CMS-028, 2-(3,4-dihydroxyphenyl)-6,7-dimethyl-4H-chromen-4-one], the “enhancement of neuroprotective activity relative to CMS-027” value with HT22 cells (relative to CMS-027) is 2 fold. Moreover, in the assay on N9 microglial cells, the “microglia (anti-inflammatory activity)” value came to 93%.
On to `COc1cc(-c2ccc(N3CCCC3)cc2)nc2ccccc12` [CMS-110, 4-methoxy-2-(4-(pyrrolidin-1-yl)phenyl)quinoline], for which the “EC50 in vitro ischemia” value in the assay on HT22 cells is “no”. The “microglia (anti-inflammatory activity)” value in the assay on N9 microglial cells was 67%.
`O=c1c(O)c(-c2ccc(O)c(O)c2)oc2c1ccc1ccccc12` [CMS-040, 2-(3,4-dihydroxyphenyl)-3-hydroxy-4H-benzo[h]chromen-4-one]: in the assay with HT22 cells (benzene ring added to A ring, relative to CMS-04P), the “further enhancement of neuroprotective activity” value is given as roughly 5.5 fold. For the same compound, the “microglia (anti-inflammatory activity)” value with N9 microglial cells is reported as 91%.
As for `CCOc1ccc(/C=C/C(=O)c2cc(C)c(C)cc2O)cc1OCC` [CMS-013, (E)-3-(3,4-diethoxyphenyl)-1-(2-hydroxy-4,5-dimethylphenyl)prop-2-en-1-one], in the assay with HT22 cells, the “EC50 in vitro ischemia” value was “no”. Moreover, the “microglia (anti-inflammatory activity)” value in the assay on N9 microglial cells is listed as 56%.
Regarding `COc1ccc(-c2cc(OC)c3ccccc3n2)cc1O` [CMS-001, 4-methoxy-2-(3-hydroxy,4-methoxyphenyl)quinoline], the “EC50 in vitro ischemia” value in the assay on HT22 cells is “no”. Further, the “microglia (anti-inflammatory activity)” value in the assay with N9 microglial cells was 69%.
On the same counts, the results for `COc1cc(-c2ccc([N+](=O)[O-])c(O)c2)nc2ccccc12` [CMS-111, 4-methoxy-2-(3-hydroxy-4-nitrophenyl)quinoline] are “no” and 25%.
For `CCOc1ccc(-c2cc(=O)c3cc(C)c(C)cc3o2)cc1OCC` [CMS-018, 2-(3,4-diethoxyphenyl)-6,7-dimethyl-4H-chromen-4-one], in the assay on HT22 cells, the “EC50 in vitro ischemia” value was “no”. Besides, the “microglia (anti-inflammatory activity)” value in the assay with N9 microglial cells amounted to 2%.
On the same counts, the results for `CCOc1ccc(-c2cc(=O)c3ccc4ccccc4c3o2)cc1OCC` [CMS-038, 2-(3,4-diethoxyphenyl)-4H-benzo[h]chromen-4-one] are “no” and 2%.
